Peptide text beside a SMILES is read from it.
Tested on: primary macrophages
Assay: Primary macrophage migration in DUNN chamber
Type: cell-based, human
Settings: 10 nM peptide added to 10 nM fMLF gradient, 6 hours
Protocol: The ability of [SRSRY] peptide to affect THP-1 cell migration was analyzed in Boyden chambers using 10 nM fMLF or 10 nM SRSRY as chemoattractants. […] Inhibitory effect of [SRSRY] is dose-dependent, it starts in the high fM range, it seems to level off in the μM range and reaches an overall 50% reduction at 10 pM (Fig 4B). […] The mechanisms by which monocytes move when subjected to a chemoattractant gradient, involve changes in cytoskeletal organization, which provide both protrusive and contractile forces necessary for cell migration. […] A total of 100 cells/sample that translocated to the area corresponding to the ring separating the inner and outer chambers were counted and their cytoskeletal organization examined with a fluorescence-inverted microscope. […] After 6 hours incubation, a total of 100 cells/sample that translocated to the area corresponding to the ring separating the inner and outer chambers were counted. […] Data are expressed as the means ± SD of three independent experiments, performed in duplicate. *Statistical significance against None with p<0.001. […] The extent of cell migration was expressed as a percentage of the net fMLF-dependent cell migration, considered as 100%. Data are expressed as the means ± SD of three independent experiments, performed in duplicate. […]

## N=C(N)NCCC[C@@H]1NC(=O)[C@H](CO)NC(=O)[C@H](Cc2ccc(O)cc2)NC(=O)[C@H](CCCNC(=N)N)NC(=O)[C@H](CO)NC1=O [[SRSRY], [Ser-Arg-Ser-Arg-Tyr]] (cyclo(RSRYS))
  effect on fMLF-directed migration of primary macrophages: reduced migration of primary macrophages to the basal level

— publication PMC4418665, “Cyclization of the Urokinase Receptor-Derived Ser-Arg-Ser-Arg-Tyr Peptide Generates a Potent Inhibitor of Trans-Endothelial Migration of Monocytes” (PLoS ONE, 2015)
